The text below walks through data of patent US20260092039A1, “DUAL INHIBITORS FOR THE TREATMENT OF ALZHEIMER'S DISEASE” (UNIVERSITAT DE BARCELONA, priority 2023, published 2026).

The nature of data set [1]: Parallel artificial membrane permeation assay for blood-brain barrier (PAMPA-BBB). It counts as in vitro ADME, porcine. The settings on record: for Papp: pig, PBS:EtOH (70:30), read-out: Blood-brain barrier permeability Pe; for CNS prediction: predictive penetration in the CNS from Pe. Here is the method:
A parallel artificial membrane permeation assay for blood-brain barrier (PAMPA-BBB) was used to evaluate the brain penetration of compounds of formula I, following the method described by L. Di et al., “High throughput artificial membrane permeability assay for blood-brain barrier”, European Journal of Medicinal Chemistry 2003, vol. 38. pp. 223-232. The in vitro permeability (Pe) of the test compounds through a lipid extract of porcine brain membrane was determined. Assayed compounds were tested using a mixture of PBS:EtOH (70:30). Assay validation was made by comparing the experimental and reported permeability values of a set of fourteen commercial drugs and a lineal correlation between experimental and reported permeability values of the fourteen commercial drugs was obtained (y=1.678 x−1.447; R^2=0.9313). From this equation and taking into account the limits established by Di et al. for BBB permeation, the ranges of permeability were established, as follows. Compounds of high BBB permeation (CNS+): Pe (10^−6 cm s^−1)>5.26; compounds of low BBB permeation (CNS−): Pe (10^−6 cm s^−1)<1.91; and compounds of uncertain BBB permeation (CNS+/−): 5.26>Pe (10^−6 cm s^−1)>1.91. The permeability results are averages of three different experiments in triplicate and a predictive penetration in the CNS is also given (Table 5).

The target in data set [2] is T1, recombinant human sEH (hsEH) (Homo sapiens, UniProt P34913).
T1 sequence (P34913 1-555): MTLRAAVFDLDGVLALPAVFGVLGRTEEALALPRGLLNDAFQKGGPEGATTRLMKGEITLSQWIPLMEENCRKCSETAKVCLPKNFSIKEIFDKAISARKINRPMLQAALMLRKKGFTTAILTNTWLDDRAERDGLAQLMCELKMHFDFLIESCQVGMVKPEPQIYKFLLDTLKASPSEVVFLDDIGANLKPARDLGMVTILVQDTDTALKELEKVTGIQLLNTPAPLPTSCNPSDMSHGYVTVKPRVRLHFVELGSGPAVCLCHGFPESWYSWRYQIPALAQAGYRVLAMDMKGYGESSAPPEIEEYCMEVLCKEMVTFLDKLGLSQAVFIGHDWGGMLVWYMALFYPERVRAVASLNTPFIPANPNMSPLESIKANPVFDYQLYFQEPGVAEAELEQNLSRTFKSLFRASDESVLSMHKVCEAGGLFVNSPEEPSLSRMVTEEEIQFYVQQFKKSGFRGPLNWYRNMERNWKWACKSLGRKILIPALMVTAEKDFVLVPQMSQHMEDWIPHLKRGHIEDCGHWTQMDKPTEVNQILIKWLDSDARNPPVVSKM
Nature of the data set: In vitro determination of sEH inhibitory activity (fluorescent PHOME assay).
Method: Control compound (TPPU): N-[1-(1-Oxopropyl)-4-piperidinyl]-N′-[4-(trifluoromethoxy)phenyl]urea.
Five μL of DMSO were added to background and positive control wells, and then 5 μL of inhibitor solution were added in the inhibitor wells. Five μL of the solution of hsEH were added to the positive control and inhibitor wells and the mixture was stirred. A 1/21 dilution of the solution of PHOME with assay buffer was prepared according to the final volume required, and then 105 μL of each well were added. The plate was carefully shaken for 10 seconds and was incubated for 5 minutes at room temperature. […] The intensity of fluorescence was used to analyze and calculate the IC50 values. Results were obtained by regression analysis from at least three data points in a linear region of the curve. IC50 values are average of minimum three independent replicates.

Data set [3] deals with primary mouse cortical neurons. The experiment in a line: LDH toxicity assay in mouse primary cortical neurons. It counts as cell-based. Here is the method: The compounds were diluted from 250 mM DMSO stocks to a 100 mM stock in DMSO. Thereafter, compounds were diluted to 100 μM, 20 μM, 5 μM, 1 μM, 0.2 μM, 0.05 μM, 0.01 μM and 0.001 μM dilution in medium, so that the final DMSO concentration in the well was 0.1% for all conditions. Stock solutions were stored at −20° C. until further use.
Isolation and treatment of primary mouse cortical neurons: Primary cortical neurons were prepared from timed pregnant wild-type C57BL/6JRccHsd mice at E16.5-E18. Animals were sacrificed by carbon dioxide and embryos were dissected in Calcium and Magnesium free Hanks Balanced Salt Solution (CMF-HBSS) containing 15 mM HEPES and 10 mM NaHCO3, pH 7.2. Embryos were decapitated, skin and skull gently removed and cortical hemispheres were separated. After removing meninges and brain stem, the cortex was isolated, chopped with a sterile razor blade in Chop solution (Hibernate-E without Calcium containing 2% B-27) and digested in 2 mg/mL papain (Worthington) dissolved in Hibernate-E without Calcium for 30 min at 30° C. Cortices were triturated for 10-15 times with a fire-polished silanized Pasteur pipette in Hibernate-E without Calcium containing 2% B-27, 0.01% DNaseI, 1 mg/mL BSA, and 1 mg/mL Ovomucoid Inhibitor. Undispersed pieces were allowed to settle by gravity for 1 min and the supernatant was centrifuged for 3 min at 228 g. The pellet was resuspended in Hibernate-E containing 2% B-27, 0.01% DNaseI, 1 mg/mL BSA, 1 mg/mL Ovomucoid Inhibitor and diluted with Hibernate-E containing 2% B-27. After the second centrifugation step (3 min at 228 g), the pellet was resuspended in nutrition medium without glutamate (Neurobasal, 2% B-27, 0.5 mM glutamine, 1% Penicillin-Streptomycin). Cells were counted in a hemacytometer and seeded in nutrition medium on poly-D-lysine pre-coated plates. Cells were cultured at 37° C.; 95% humidity and 5% CO2. All wells were handled the same way. On DIV8, cells were treated with the compounds for the evaluation of the neurotoxic effect. On DIV9, the MTT and LDH assays were performed as described below. The experiments were performed in six technical replicates for all groups per experiment.
LDH toxicity assay: Supernatants of cells were subjected to the lactate dehydrogenase (LDH) toxicity assay by using the Cytotoxicity Detection Kit (Roche Diagnostics, Cat. No: 11 644 793 001). Seventy μL of cell culture supernatant was transferred to clear 96-well plates. Seventy μL freshly prepared reaction mixture was added to each well and the mixture was incubated for 20 to 30 min at room temperature protected from light. Absorbance was measured at 492 nm and 620 nm as reference wavelength. Cell death was expressed as optical density (OD). Values were calculated as percent of control values (vehicle control).

As usually defined, the IC50 is the concentration needed to halve the response being measured.

On to `Cc1cncn1CCCNC(=O)NC1C2CC3CC(C2)CC1C3` (centres unmarked) [Ii, 1-(adamantan-2-yl)-3-[3-(5-methyl-1H-imidazol-1-yl)propyl]urea], for which the Papp in data set [1] is more than 30 ×10⁻⁶ cm/s. Besides, the CNS prediction entry in data set [1] is listed as “CNS+ (Compounds of high BBB permeation (CNS+): Pe (10^−6 cm s^−1)>5.26)”. The IC50 in data set [2] came to 4.3 nM. Besides, the “LDH toxicity assay (cell death), primary cortical neurons” value (“LDH toxicity assay (cell death)” for short) in data set [3] (compound 0.001 μM) is 99 % of vehicle control; in data set [3] (compound 0.01 μM), 97 % of vehicle control; in data set [3] (compound 0.05 μM), 97 % of vehicle control; in data set [3] (compound 0.2 μM) it was 94 % of vehicle control; in data set [3] (compound 1 μM), 101 % of vehicle control; in data set [3] (compound 5 μM), 100 % of vehicle control. The “LDH toxicity assay (cell death)” value in data set [3] (compound 20 μM) is given as 97 % of vehicle control; in data set [3] (compound 100 μM), 113 % of vehicle control.

With `CCC12CC3CC(C1)CC(NC(=O)NCCCn1cncc1C)(C3)O2` [Is, 1-(3-ethyl-2-oxaadamantan-1-yl)-3-[3-(5-methyl-1H-imidazol-1-yl)propyl]urea], in data set [1], the Papp is more than 30 ×10⁻⁶ cm/s. The CNS prediction result in data set [1] is on record as “CNS+ (Compounds of high BBB permeation (CNS+): Pe (10^−6 cm s^−1)>5.26)”. Moreover, the IC50 in data set [2] was determined as 2800 nM. Moreover, the “LDH toxicity assay (cell death)” value is 96 % of vehicle control in data set [3] (compound 0.001 μM); 97 % of vehicle control in data set [3] (compound 0.01 μM); 99 % of vehicle control in data set [3] (compound 0.05 μM); 98 % of vehicle control in data set [3] (compound 0.2 μM); 107 % of vehicle control in data set [3] (compound 1 μM); 102 % of vehicle control in data set [3] (compound 5 μM). For the same compound, the “LDH toxicity assay (cell death)” value is given as 113 % of vehicle control in data set [3] (compound 20 μM) and 107 % of vehicle control in data set [3] (compound 100 μM).

With `CCC12CC3CC(C1)CC(NC(=O)NCCCn1cncc1C)(C3)C2` [Id, 1-(3-ethyladamantan-1-yl)-3-[3-(5-methyl-1H-imidazol-1-yl)propyl]urea], the Papp in data set [1] was more than 30 ×10⁻⁶ cm/s. The CNS prediction result in data set [1] is reported as “CNS+ (Compounds of high BBB permeation (CNS+): Pe (10^−6 cm s^−1)>5.26)”. Further, the IC50 in data set [2] is 3.3 nM. Moreover, the “LDH toxicity assay (cell death)” value in data set [3] (compound 0.001 μM) was 114 % of vehicle control; in data set [3] (compound 0.01 μM), 104 % of vehicle control; in data set [3] (compound 0.05 μM), 100 % of vehicle control; in data set [3] (compound 0.2 μM) it was 100 % of vehicle control; in data set [3] (compound 1 μM), 99 % of vehicle control; in data set [3] (compound 5 μM) it was 102 % of vehicle control. The figures for the “LDH toxicity assay (cell death)” value in data set [3] (compound 20 μM) and in data set [3] (compound 100 μM) were 109 % of vehicle control and 157 % of vehicle control, respectively.

`Cc1cncn1CCCNC(=O)NC12CC3CC(CC(C)(C3)O1)C2` [Ir, 1-[3-(5-methyl-1H-imidazol-1-yl)propyl]-3-(3-methyl-2-oxaadamantan-1-yl)urea]: the Papp in data set [1] came out at 6.9 ×10⁻⁶ cm/s. For the same compound, in data set [1], the CNS prediction entry is given as “CNS+ (Compounds of high BBB permeation (CNS+): Pe (10^−6 cm s^−1)>5.26)”. Besides, the IC50 in data set [2] was 860 nM. In addition, the “LDH toxicity assay (cell death)” value in data set [3] (compound 0.001 μM) is listed as 100 % of vehicle control; in data set [3] (compound 0.01 μM) it was 100 % of vehicle control; in data set [3] (compound 0.05 μM), 101 % of vehicle control; in data set [3] (compound 0.2 μM), 101 % of vehicle control; in data set [3] (compound 1 μM), 100 % of vehicle control; in data set [3] (compound 5 μM) it was 100 % of vehicle control. Besides, the “LDH toxicity assay (cell death)” value in data set [3] (compound 20 μM) is 101 % of vehicle control; in data set [3] (compound 100 μM), 107 % of vehicle control.
